# Reference: patent US4416885A, “Use of isopropylaminopyrimidine in the chemotherapy of muscular dystrophy, myopathy and myotonia” (priority 1982, dated 1983)
# Experiments:
# [1] = tested on: Dystrophic monocytes; assay: Effect on human monocytes in culture (flat cells), dystrophic; type: cell-based; details: dystrophic monocyte + dibutryl c-GMP, one individual; untreated dystrophic 36.2%; preliminary
# [2] = tested on: dystrophic 413 muscle explants; assay: Microtubule complexes in muscle explants of injected dystrophic chickens; type: in vivo, chicken; details: dystrophic 413 chickens, 28 days of dilantin injections
# Text: Essentially, these experiments were divided into three subgroups, taken from the previous Table:
# 413A, 413B, 412A, 412B: All were sacrificed after 4 injections and muscle explants placed in culture.
# 413C, 412C: All were sacrificed after 8 injections and muscle explants were placed in culture.
# 413D, 412D: All were sacrificed after 10 injections and muscle explants placed in culture.
# All explants were placed in CMRL culture medium containing 5% horse serum, 15% fetal bovine serum and 1% antibiotics and allowed to grow for 5-7 days before being fixed and observed for the presence or absence of microtubules. No IAPP was added to the culture medium during the 5-7 days in culture.
# [3] = tested on: dystrophic New Hampshire chickens, line 413; assay: Overall assessment of chemotherapy over all parameters measured; type: in vivo, chicken; details: 413 chickens, after 28 days of dilantin injections
# Method: The compound IAPP was tested on dystrophic New Hampshire chickens, line 413, and Imperial College (London, England) sub-line of the original Davis, University of California strain. The chickens are homozygous for muscular dystrophy, the disease appearing with 100% incidence.
# Chemotherapy was assessed by application of seven different parameters: physical tests of muscular disability, namely the flip test and wing apposition (W.A.) measurements; biochemical assays of serum and muscle enzume levels of creatine phosphokinase (CPK), pyruvate kinase (PK) and acetylcholinesterase (AChE); and histological comparisons of treated and untreated muscle. Toxicity studies (weight loss, etc.) were also used. A very comprehensive profile of the drug was thus obtained which related to all the known, highly characteristic features of the disease which are applicable to both the animal model and the human. […]
SMILES,% Flat Cells [1],Correction of microtubule defect in explants [2],Appearance of dystrophic chickens [3]
"CCCC(=O)Nc1nc2c(ncn2[C@@H]2O[C@@H]3COP(=O)(O)O[C@H]3[C@H]2OC(=O)CCC)c(=O)[nH]1 [dibutryl c-GMP, reference compound]",52.0%,,
"O=C1NC(=O)C(c2ccccc2)(c2ccccc2)N1 [dilantin, reference compound]",,did not have their microtubule defect corrected,Some dystrophic 413 chickens appeared normal
